Assay results reported in patent US8574563B2 (Bristol-Myers Squibb Company, priority 2006, dated 2013).
Read-outs that look alike come from different tables or passages of the source.

Tested on: HCV 1b-377-neo replicon cells
Assay: HCV replicon assay, HCV 1b-377-neo replicon cells (1b FRET)
Type: cell-based, Hepatitis C virus genotype 1b
Conditions: HCV 1b-377-neo replicon cells, HCV 1b genotype, read-out: EC50 range against HCV 1b (Table 2, Range)
Method in brief: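 FRET-based replicon assay in HCV 1b-377-neo cells, including a comparison line carrying the NS5A Y2065H mutation that confers resistance to a reference compound.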

In the case of CC(C)C[C@@H](C(=O)N1CCC[C@H]1c1nc(-c2ccc(-c3ccc(-c4cnc([C@@H]5CCCN5C(=O)[C@H](CC(C)C)N(C)C(=O)OC(C)(C)C)[nH]4)cc3)cc2)c[nH]1)N(C)C(=O)OC(C)(C)C [Example F28, tert-butyl ((1S)-1-(((2S)-2-(5-(4′-(2-((2S)-1-((2S)-2-((tert-butoxycarbonyl)(methyl)amino)-4-methylpentanoyl)-2-pyrrolidinyl)-1H-imidazol-4-yl)-4-biphenylyl)-1H-imidazol-2-yl)-1-pyrrolidinyl)carbonyl)-3-methylbutyl)methylcarbamate], the EC50 (Hepatitis C virus) is reported as 1 to 99 nM.

Molecule COC(=O)N[C@H](C(=O)N1CCC[C@H]1c1nc(-c2ccc(-c3ccc(-c4c[nH]c([C@@H]5CCCN5C(=O)[C@@H](NC5CCOCC5)C(C)C)n4)cc3)cc2)c[nH]1)C(C)C [Example F49, methyl ((1S)-2-methyl-1-(((2S)-2-(4-(4′-(2-((2S)-1-(N-(tetrahydro-2H-pyran-4-yl)-L-valyl)-2-pyrrolidinyl)-1H-imidazol-4-yl)-4-biphenylyl)-1H-imidazol-2-yl)-1-pyrrolidinyl)carbonyl)propyl)carbamate] has an EC50 (Hepatitis C virus) of 1 to 99 nM.

For O=C(Nc1cccnc1)N[C@@H](C(=O)N1CCC[C@H]1c1ncc(-c2ccc(-c3ccc(-c4c[nH]c([C@@H]5CCCN5C(=O)[C@H]5CCCO5)n4)cc3)cc2)[nH]1)c1ccccc1 [Example 120-9, 1-((1R)-2-oxo-1-phenyl-2-((2S)-2-(5-(4′-(2-((2S)-1-((2R)-tetrahydro-2-furanylcarbonyl)-2-pyrrolidinyl)-1H-imidazol-4-yl)-4-biphenylyl)-1H-imidazol-2-yl)-1-pyrrolidinyl)ethyl)-3-(3-pyridinyl)urea], the EC50 (Hepatitis C virus) was 0.001 to 0.999 nM.

CCN(CC)[C@H](C)C(=O)N1CCC[C@H]1c1ncc(-c2ccc(-c3ccc(-c4cnc([C@@H]5CCCN5C(=O)[C@@H](NC(=O)OC)C(C)C)[nH]4)c(F)c3)cc2F)[nH]1 [Example D59, methyl ((1S)-1-(((2S)-2-(5-(4′-(2-((2S)-1-(N,N-diethyl-D-alanyl)-2-pyrrolidinyl)-1H-imidazol-5-yl)-3,3′-difluoro-4-biphenylyl)-1H-imidazol-2-yl)-1-pyrrolidinyl)carbonyl)-2-methylpropyl) carbamate] was tested, and the EC50 (Hepatitis C virus) was 0.001 to 0.999 nM.

Work on CCN(CC)[C@@H](C(=O)N1CCC[C@H]1c1ncc(-c2ccc(-c3ccc(-c4cnc([C@@H]5CCCN5C(=O)[C@@H]5CCC(=O)N5)[nH]4)cc3)cc2)[nH]1)c1ccccc1 [Example M32, (5S)-5-(((2S)-2-(5-(4′-(2-((2S)-1-((2R)-2-(diethylamino)-2-phenylacetyl)-2-pyrrolidinyl)-1H-imidazol-5-yl)-4-biphenylyl)-1H-imidazol-2-yl)-1-pyrrolidinyl)carbonyl)-2-pyrrolidinone] yielded an EC50 (Hepatitis C virus) of 100 to 999 nM.

In the case of CCN(CC)[C@@H](C(=O)N1CCC[C@H]1c1ncc(-c2ccc(-c3ccc(-c4cnc([C@@H]5CCCN5C(=O)C5(NC(=O)OC)CCC5)[nH]4)cc3)cc2)[nH]1)c1ccccc1 [Example M41, methyl (1-(((2S)-2-(5-(4′-(2-((2S)-1-((2R)-2-(diethylamino)-2-phenylacetyl)-2-pyrrolidinyl)-1H-imidazol-5-yl)-4-biphenylyl)-1H-imidazol-2-yl)-1-pyrrolidinyl)carbonyl)cyclobutyl) carbamate], the EC50 is reported as 1 to 99 nM.

For COC(=O)N[C@H](C(=O)N1CCCC1c1ncc(-c2ccc(-c3ccc(-c4cnc([C@]5(C)CCCN5C(=O)[C@@H](NC(=O)OC)[C@@H](C)OC)[nH]4)cc3)cc2)[nH]1)[C@@H](C)OC (some centres unmarked), the EC50 (Hepatitis C virus) was 0.001 to 0.999 nM.

COC(=O)N[C@@H](C(=O)N1CCC[C@H]1c1ncc(-c2ccc(-c3ccc(-c4cnc([C@@H]5CCCN5C(=O)C(c5csc(C)n5)N(C)C)[nH]4)cc3)cc2)[nH]1)c1ccccc1 (stereo partly drawn) [Example 84-48, methyl ((1R)-2-((2S)-2-(5-(4′-(2-((2S)-1-((dimethylamino)(2-methyl-1,3-thiazol-4-yl)acetyl)-2-pyrrolidinyl)-1H-imidazol-5-yl)-4-biphenylyl)-1H-imidazol-2-yl)-1-pyrrolidinyl)-2-oxo-1-phenylethyl)carbamate] gave an EC50 (Hepatitis C virus) of 0.001 to 0.999 nM.
